According to PubChem BioAssay (NCI):
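Step 1: Grow cells in 96-well plates. Step 2: Expose to compound for 48 hours at 5 concentrations. Step 3: Interpolate endpoints linearly; if unreached, use highest concentration. Abbreviation: GI50, concentration required for 50% inhibition of growth. TGI is the concentration that stops growth completely.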

tested on: MDA-MB-468 breast; experiment: growth of human tumour cells (NCI), 48 h

Compared with `O=C(CCCN1CCOCC1)Nc1ccc(Cn2nnc3c2C(=O)c2nnn(Cc4ccc(NC(=O)CCCN5CCOCC5)cc4)c2C3=O)cc1`, `O=C(CN1CCN(c2ccc(Cl)cc2)CC1)N1CCN(c2nnc(-c3ccc(Cl)cc3)c(-c3ccc(Cl)cc3)n2)CC1` is 62-fold higher in GI50: 304 nM for the first, 18800 nM for the second.

Going from `CC(C)(C#N)c1cc(F)cc(C(=O)Nc2cc(Nc3ncccc3-c3ncnc4nc[nH]c34)ccc2F)c1` to `CN1CCN(Cc2ccc(NC(=O)c3cncc(C#Cc4cncc5ncccc45)c3)cc2C(F)(F)F)CC1`, the GI50 falls from greater than 10000 nM to 8720 nM.

`C=CC[P+](c1ccccc1)(c1ccccc1)c1ccccc1` and `O=C1c2ccccc2C(=Cc2ccccc2)c2ccccc21` are within 1.5-fold of each other in GI50: 609 nM for the first, 565 nM for the second.

First: COc1ccc(-c2nn(-c3cccc(NC(=O)c4ccc5c(c4)OCCO5)c3)cc2-c2ccncc2)cc1Cl
Second: COc1cc2nccc(Oc3ccc(NC(=O)C4(C(=O)Nc5ccc(F)cc5)CC4)cc3)c2cc1Oc1ccc(N)cn1
The GI50 of the first is 1.5-fold lower: 1630 nM for the first, 2450 nM for the second.

First: Oc1c(CN2CCCC2)cc(COCc2ccc(Br)cc2)c2cccnc12
Second: CC1CCN(CCCCCOc2ccc3oc4cc(Cl)ccc4c(=O)c3c2)CC1
The GI50 of the first is 10-fold lower: 602 nM for the first, 6130 nM for the second.

First: O=C(CF)N(O)c1ccc(/C=C/c2ccccc2)cc1
Second: CN(C)CCOc1ccc(/C(=C(/CCCl)c2ccccc2)c2ccccc2)cc1
The GI50 of the first is 11-fold lower: 64.2 nM for the first, 682 nM for the second.

Going from `C#C[C@]1(O)CC[C@H]2[C@@H]3CC=C4c5sc(Nc6cccc(C)n6)nc5CC[C@]4(C)[C@H]3CC[C@@]21C` to `CC1=C2C(=C[C@@](C)(C=O)[C@@H]2O)C(=O)[C@](C)(O)C12CC2`, the GI50 falls from 2040 nM to 233 nM (8.8-fold).

First: Cc1cnc(/C=N\NC(N)=S)c2cccc(N)c12
Second: Cn1cc(C2=C(c3cccnc3)C(=O)NC2=O)c2ccccc21
The GI50 of the first is lower: 206 nM for the first, greater than 20100 nM for the second.

Going from `Cc1noc(C)c1-c1cc(O)cc(C(O)c2ccccc2)c1` (centres undefined) to `CC(C)(C)c1[nH]cnc1/C=c1\[nH]c(=O)/c(=C/c2ccccc2)[nH]c1=O`, the GI50 falls from 1890 nM to 22.6 nM (84-fold).

Compared with `CC(=O)O[C@H](C[C@H](C(C)C)N(C)C(=O)[C@@H](NC(=O)[C@H]1CCCCN1C)C(C)C)c1nc(C(=O)N[C@@H](Cc2ccccc2)C[C@H](C)C(=O)O)c(C(C)C)s1`, `COC(=O)[C@]12CC[C@@H](C)[C@H](C)[C@@H]1C1=CC[C@@H]3[C@@]4(C)C(C=O)=C[C@@](C)(COC(=O)c5ccco5)[C@@H]4C(=O)C[C@@]3(C)[C@]1(C)CC2` is higher in GI50: less than 3.33 nM for the first, 277 nM for the second.

First: Cc1cc(C2=NNC(=O)Cc3cc4c(cc32)OCCO4)cc(C)c1N
Second: N#Cc1ccc(N2Cc3ccccc3OC3=C2C(=O)c2c(O)ccc(O)c2C3=O)cc1
The GI50 of the first is 4-fold higher: 523 nM for the first, 132 nM for the second.

`COc1ccc(C2=NN(C(=O)c3cc(OC)c(OC)c(OC)c3)C(c3ccc(Cl)cc3)C2)cc1OC` (centres undefined) and `O=C(Nc1cccc(Oc2nnc(Cl)c3ccccc23)c1)Nc1ccc(Cl)c(C(F)(F)F)c1` are within 1.5-fold of each other in GI50: 585 nM for the first, 689 nM for the second.

Going from `CN(C)c1ncnc2c1nnn2C1OC(CO)C(O)C1O` (centres undefined) to `C[C@@H]1CC[C@@H]2[C@@H]1[C@H](OC(=O)/C=C/c1ccccc1)[C@]1(C3CCCCC3)C[C@@H](NC(=O)CO)[C@@]2(C)O1`, the GI50 rises from 73.6 nM to 17100 nM (230-fold).

First: CC[C@H](Nc1nc(N)nc(C)c1C#N)c1nc2cccc(NCc3ccc(C(=O)NO)cc3)c2c(=O)n1-c1ccccc1
Second: O=C(Nc1ccc(Cl)cc1F)c1cc(I)ccc1O
The GI50 of the first is 1.7-fold lower: 1270 nM for the first, 2100 nM for the second.

First: O=c1c2ccccc2n2n1CC(O)C2 (centres undefined)
Second: CC/C=C\C/C=C\C[C@H](O)C/C=C1/C(=O)C=C[C@@H]1C/C=C\CCCC(=O)O
The GI50 of the first is higher: greater than 100000 nM for the first, 2320 nM for the second.

Compared with `O=C(CCCN1CCOCC1)Nc1ccc(Cn2nnc3c2C(=O)c2nnn(Cc4ccc(NC(=O)CCCN5CCOCC5)cc4)c2C3=O)cc1`, `O=C(CN1CCN(c2ccc(Cl)cc2)CC1)N1CCN(c2nnc(-c3ccc(Cl)cc3)c(-c3ccc(Cl)cc3)n2)CC1` is 80-fold higher in TGI: 0.817 µM for the first, 65.2 µM for the second.

`CC(C)(C#N)c1cc(F)cc(C(=O)Nc2cc(Nc3ncccc3-c3ncnc4nc[nH]c34)ccc2F)c1` and `CN1CCN(Cc2ccc(NC(=O)c3cncc(C#Cc4cncc5ncccc45)c3)cc2C(F)(F)F)CC1` cannot be ordered by TGI: greater than 10 µM for the first, 21.8 µM for the second.

`C=CC[P+](c1ccccc1)(c1ccccc1)c1ccccc1` and `O=C1c2ccccc2C(=Cc2ccccc2)c2ccccc21` are within 1.5-fold of each other in TGI: 9.13 µM for the first, 10.7 µM for the second.

`COc1ccc(-c2nn(-c3cccc(NC(=O)c4ccc5c(c4)OCCO5)c3)cc2-c2ccncc2)cc1Cl` and `COc1cc2nccc(Oc3ccc(NC(=O)C4(C(=O)Nc5ccc(F)cc5)CC4)cc3)c2cc1Oc1ccc(N)cn1` are within 1.5-fold of each other in TGI: 6.48 µM for the first, 8.82 µM for the second.

First: Oc1c(CN2CCCC2)cc(COCc2ccc(Br)cc2)c2cccnc12
Second: CC1CCN(CCCCCOc2ccc3oc4cc(Cl)ccc4c(=O)c3c2)CC1
The TGI of the first is 6.4-fold lower: 2.14 µM for the first, 13.6 µM for the second.

Going from `O=C(CF)N(O)c1ccc(/C=C/c2ccccc2)cc1` to `CN(C)CCOc1ccc(/C(=C(/CCCl)c2ccccc2)c2ccccc2)cc1`, the TGI rises from 0.354 µM to 1.52 µM (4.3-fold).

First: C#C[C@]1(O)CC[C@H]2[C@@H]3CC=C4c5sc(Nc6cccc(C)n6)nc5CC[C@]4(C)[C@H]3CC[C@@]21C
Second: CC1=C2C(=C[C@@](C)(C=O)[C@@H]2O)C(=O)[C@](C)(O)C12CC2
The TGI of the first is 7.4-fold higher: 5.68 µM for the first, 0.764 µM for the second.

Going from `Cc1cnc(/C=N\NC(N)=S)c2cccc(N)c12` to `Cn1cc(C2=C(c3cccnc3)C(=O)NC2=O)c2ccccc21`, the TGI rises from 0.504 µM to greater than 25 µM.

`Cc1noc(C)c1-c1cc(O)cc(C(O)c2ccccc2)c1` (centres undefined) and `CC(C)(C)c1[nH]cnc1/C=c1\[nH]c(=O)/c(=C/c2ccccc2)[nH]c1=O` are within 1.5-fold of each other in TGI: 40.6 µM for the first, 28.6 µM for the second.

Compared with `CC(=O)O[C@H](C[C@H](C(C)C)N(C)C(=O)[C@@H](NC(=O)[C@H]1CCCCN1C)C(C)C)c1nc(C(=O)N[C@@H](Cc2ccccc2)C[C@H](C)C(=O)O)c(C(C)C)s1`, `C[C@@H]1CC[C@@H]2[C@@H]1[C@H](OC(=O)/C=C/c1ccccc1)[C@]1(C3CCCCC3)C[C@@H](NC(=O)CO)[C@@]2(C)O1` is 170-fold higher in TGI: 0.194 µM for the first, 33.5 µM for the second.

Compared with `Cc1cc(C2=NNC(=O)Cc3cc4c(cc32)OCCO4)cc(C)c1N`, `N#Cc1ccc(N2Cc3ccccc3OC3=C2C(=O)c2c(O)ccc(O)c2C3=O)cc1` is 20-fold lower in TGI: 7.24 µM for the first, 0.366 µM for the second.

Compared with `COc1ccc(C2=NN(C(=O)c3cc(OC)c(OC)c(OC)c3)C(c3ccc(Cl)cc3)C2)cc1OC` (centres undefined), `O=C(Nc1cccc(Oc2nnc(Cl)c3ccccc23)c1)Nc1ccc(Cl)c(C(F)(F)F)c1` is lower in TGI: greater than 100 µM for the first, 3.43 µM for the second.

Compared with `CN(C)c1ncnc2c1nnn2C1OC(CO)C(O)C1O` (centres undefined), `O=c1c2ccccc2n2n1CC(O)C2` (centres undefined) is higher in TGI: 1.16 µM for the first, greater than 100 µM for the second.

`CC[C@H](Nc1nc(N)nc(C)c1C#N)c1nc2cccc(NCc3ccc(C(=O)NO)cc3)c2c(=O)n1-c1ccccc1` and `O=C(Nc1ccc(Cl)cc1F)c1cc(I)ccc1O` are within 1.5-fold of each other in TGI: 4.42 µM for the first, 5.45 µM for the second.

In the case of `CC/C=C\C/C=C\C[C@H](O)C/C=C1/C(=O)C=C[C@@H]1C/C=C\CCCC(=O)O`, the TGI was 6.71 µM.
